Measurements reported in publication PMC8268376, “Effects of Venlafaxine, Risperidone and Febuxostat on Cuprizone-Induced Demyelination, Behavioral Deficits and Oxidative Stress” (International Journal of Molecular Sciences, 2021).

Target: TRPA1 (hTRPA1, transient receptor potential ankyrin 1) (Homo sapiens, UniProt O75762)
Experiment: Calcium […] fluorescence assay in hTRPA1-transfected vs untransfected HEK293T cells; agonist response blocked by A-967079; significant at […] and above
Format: cell-based

Sequence of TRPA1 (hTRPA1, transient receptor potential ankyrin 1) (O75762 whole entry): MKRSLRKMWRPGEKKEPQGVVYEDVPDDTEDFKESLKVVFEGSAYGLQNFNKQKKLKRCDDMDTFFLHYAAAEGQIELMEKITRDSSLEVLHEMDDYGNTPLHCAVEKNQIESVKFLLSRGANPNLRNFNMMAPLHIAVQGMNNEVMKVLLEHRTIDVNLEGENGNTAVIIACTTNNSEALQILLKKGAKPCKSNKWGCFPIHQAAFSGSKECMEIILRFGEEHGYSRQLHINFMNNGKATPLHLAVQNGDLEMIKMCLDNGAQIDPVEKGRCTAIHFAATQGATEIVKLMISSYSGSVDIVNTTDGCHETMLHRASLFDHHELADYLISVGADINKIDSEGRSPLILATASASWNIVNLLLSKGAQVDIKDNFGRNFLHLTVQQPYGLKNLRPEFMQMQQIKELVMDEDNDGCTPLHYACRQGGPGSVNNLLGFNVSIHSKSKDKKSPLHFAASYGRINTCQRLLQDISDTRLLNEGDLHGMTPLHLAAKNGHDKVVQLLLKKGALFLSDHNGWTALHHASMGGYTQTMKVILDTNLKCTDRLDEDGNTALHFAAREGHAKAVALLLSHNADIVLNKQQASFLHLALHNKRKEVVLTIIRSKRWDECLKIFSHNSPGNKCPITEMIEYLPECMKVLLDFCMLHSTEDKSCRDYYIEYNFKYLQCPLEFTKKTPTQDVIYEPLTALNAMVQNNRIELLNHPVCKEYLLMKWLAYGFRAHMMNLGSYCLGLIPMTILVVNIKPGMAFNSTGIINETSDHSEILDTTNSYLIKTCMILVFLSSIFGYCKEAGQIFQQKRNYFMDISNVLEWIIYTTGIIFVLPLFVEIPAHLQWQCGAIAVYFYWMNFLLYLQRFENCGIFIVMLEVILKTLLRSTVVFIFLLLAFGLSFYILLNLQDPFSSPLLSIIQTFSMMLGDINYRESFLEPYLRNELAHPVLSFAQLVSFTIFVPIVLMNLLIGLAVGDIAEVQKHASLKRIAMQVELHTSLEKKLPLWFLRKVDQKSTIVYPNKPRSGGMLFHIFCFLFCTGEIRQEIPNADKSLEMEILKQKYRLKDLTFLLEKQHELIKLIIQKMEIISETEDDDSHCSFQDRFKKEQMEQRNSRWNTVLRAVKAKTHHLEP

SMILES: Cc1nc(-c2ccc(OCC(C)C)c(C#N)c2)sc1C(=O)O [febuxostat]
- lowest concentration giving significant TRPA1 calcium response: ~ 126 µM
